In patent US20160145242A1, “PHENYLIMIDAZOLE DERIVATIVE, AND THERAPEUTIC MEDICINE OR PREVENTIVE MEDICINE FOR INFLAMMATORY DISEASE, ETC” (NIPPON SODA CO., LTD., priority 2013, published 2016):

Tested on: mouse model of retinal light disorders
Assay: Retinal light disorder model test (ONL thickness)
Format: in vivo
Conditions: BALB/cCr male mouse, 30 mg/kg oral 30 minutes before 2 hours white light, eyes taken after 4 days
Description: (Retinal Light Disorder Model Test)
The usefulness (improvement rate with respect to retinal light disorders) of the compound of the invention was evaluated using a mouse model of retinal light disorders, generally used as a model of retinal light disorders, (Investigative Ophthalmology & Visual Science, 2002; vol. 43; pp. 1162 to 1167). Here, the improvement rate with respect to the retinal light disorders was calculated based on the thickness of an outer nuclear layer (hereinafter, referred to as “ONL”), which is strongly interfered especially by light application among a retinal cell layers, in a tissue specimen of a perpendicular surface of an eyeball.
Moreover, in the present test, the ONL of a light application group to which only a base was administered was degraded to 30% to 50% of a normal light group.
A test compound was dissolved or suspended in a solvent (1% (w/v) methyl cellulose aqueous solution) and then an administration liquid was prepared so that the test compound to be 30 mg/kg body weight. The dose was set to 10 ml/kg body weight.
A 5-week-old BALB/cCr-based male mouse (weight of approximately 20 g) was bred in a dark place for 48 hours. Subsequently, the test compound administration liquid was orally administered (30 mg/kg). After 30 minutes, […] of white light was continuously applied to the mouse for 2 hours. Next, the mouse was bred in a breeding room with 50 lux of light for 4 days.
An anesthetic (secobarbital sodium) was intraperitoneally administered to anesthetize the mouse and then the mouse was exsanguinated to die. The top portion of the right eyeball was marked with a thread and the eyeball was extracted. […]
The ONL thickness in the tissue specimen was measured for every 200 μm between the optic nerve papilla to where upwardly spaced by 1 mm from the optic nerve papilla using Lumina Vision. The area (AUC) from the optic nerve papilla to where upwardly spaced by 1 mm from the optic papilla in the graph was calculated as an ONL area. […]

## CC(=O)N1CCN(c2ccc([N+](=O)[O-])c(-n3ccnc3)c2)CC1 [2-imidazole-1-yl-4-(acetylpiperazine-1-yl)nitrobenzene, reference compound]
  ONL thickness improvement rate: 29.2%

## CC(=O)NC1CCN(c2ccc(N)c(-n3ccnc3)c2)C1 (centres unmarked) [Compound 3-1, 3-acetylamino-1-(4-amino-3-imidazole-1-yl-phenyl)pyrrolidine]
  ONL thickness improvement rate: 87.2%
